Source: patent US20090318351A1, “METHOD OF TREATING ACUTE ST-ELEVATION MYOCARDIAL INFARCTION WITH A DELTA PKC ANTAGONIST” (priority 2008, published 2009)
Entries after “also recorded” stand apart in the source; their conditions may differ. Ends that are not written are not given here.

What was measured:
[1] = Stability of linear versus disulfide linked peptides in PBS solution; format: physicochemical; conditions: conditions described in Example 15 (so in the source), FIGS. 8, 9 and 15
Method: The peptides were placed in solution at 0.1 mg/ml in PBS (pH 7.4) at 37° C.
Linear and disulfide bond linked versions of PKC-βI and PKC-βII peptide compositions were incubated under the conditions described in Example 15.
In particular, the Asn residues at position 7 of the β-I and β-II peptides and the Gln at position 2 of the β-II peptide. These linear peptide compositions were modified by substituting the Gly immediately C-terminal to the Asn with either Leu in the β-I peptide composition or Gly to Ile in the β-II peptide composition. The Gln at position 2 of the β-II peptide composition was also substituted with a Glu residue. The stability of the peptides was studied under the conditions described in Example 15.

[2] = 100 μg/ml, room temperature, LC/MS
Method: The effect of N-terminal acetylation and C-terminal amidation on compound stability in plasma and serum from rat and human was studied. The compounds were tested in the plasma/serum at a concentration of 100 μg/ml. The solutions were incubated at room temperature, precipitated with 5% TCA, and then the supernatant was neutralized with ammonium acetate. The peptides were then analyzed by LC/MS.

[3] = tested on: rat heart; assay: Rat heart model (Langendorff assay) of ischemic damage, CK release; conditions: Langendorff in vitro post-ischemia model, 10 minutes perfusion, FIG. 16
Method: The ability of the capped composition to inhibit ischemic damage in a rat heat model (Langendorff Assay) was evaluated versus the uncapped form.

[4] = Plasma stability of capped peptides (KAI-9706 modified at amino and carboxy termini); conditions: rat
Method: Plasma stability of capped peptides was compared. KAI-9706 was modified step-wise at its amino and carboxy termini. Plasma stability as measured by the percent of peptide composition remaining after 15 minutes.

[5] = Effect of D-peptides on plasma stability of KAI-9706; conditions: All-L, All-D, scrambled or retro-inverso (R/I) carrier and cargo
Method: KAI-9706 was engineered with D-amino acids to determine their impact on peptide composition stability. Unmodified KAI-9706 was compared to a peptide composition with the same amino acid sequence, however the amino acids used were d-enantiomers instead of 1-amino acids. A retro-inverso version and a scrambled version of the peptide composition were also prepared.

Row | Molecule | stability in solution of PKC-βI and PKC-βII peptide compositions [1] | stability in human serum [2] | also measured
1 | Ac-GKLFIMNLSGYGRKKRRQRRR-NH2 [modified linear β-I peptide composition] | served to stabilize; also recorded: stabilized |  | 
2 | Ac-EAVSLKPTGGYGRKKRRQRRR-NH2 [KP-1678] |  | increased stability | 
3 | Ac-GEEVIRNISGYGRKKRRQRRR-NH2 [modified linear β-II peptide composition] | served to stabilize; also recorded: improved stability |  | 
4 | KAI-1355: truncated version of KAI-9803 in which the carboxy terminal leucine was removed; cargo CSFNSYELGS |  |  | potency in protecting cardiac tissue from ischemia (creatine kinase release) [3]: potency comparable to that of the full length KAI-9803
5 | CC[C@H](C)[C@H](NC(=O)[C@@H]1CCCN1C(=O)[C@H](C)NC(=O)[C@H](CC(=O)O)NC(=O)[C@H](Cc1c[nH]cn1)NC(=O)[C@@H](N)CSSC[C@H](N)C(=O)N[C@@H](Cc1ccc(O)cc1)C(=O)NCC(=O)N[C@@H](CCCNC(=N)N)C(=O)N[C@@H](CCCCN)C(=O)N[C@@H](CCCCN)C(=O)N[C@@H](CCCNC(=N)N)C(=O)N[C@@H](CCCNC(=N)N)C(=O)N[C@@H](CCC(N)=O)C(=O)N[C@@H](CCCNC(=N)N)C(=O)N[C@@H](CCCNC(=N)N)C(=O)N[C@@H](CCCNC(=N)N)C(=O)O)C(=O)NCC(=O)N[C@@H](Cc1ccc(O)cc1)C(=O)N[C@@H](CC(=O)O)C(=O)O [KAI-9706] |  |  | remaining at 0.25 h [4]: 1%; % parent remaining at 15 mins [5]: 1%
6 | EAVSLKPTGGYGRKKRRQRRR-NH2 [KP-1633] |  | increased stability | 
